According to paper PMC5834809 (Cancer Science, 2018):

Experiments:
[1] = tested on: Japanese women with HR+ ABC; settings: first‐line therapy; cited from earlier work
[2] = tested on: non‐Japanese postmenopausal women with ER+ and HER2− ABC; settings: PALOMA‐1; letrozole 2.5 mg QD alone or with palbociclib 125 mg QD 3/1 schedule; cited from earlier work
[3] = tested on: postmenopausal women with ER+/HER2− ABC; settings: PALOMA‐2; letrozole with or without palbociclib (3/1 schedule); cited from earlier work
[4] = tested on: Japanese postmenopausal patients with ER+/HER2− advanced breast cancer; assay: Exposure to study drugs and dose modifications; assay type: in vivo, human; settings: for Median average duration of dose interruption (range): during total cycles
[5] = tested on: patients with advanced solid tumors refractory to standard therapy; settings: single‐agent, Japanese patients, phase I part 1; cited from earlier work
[6] = Plasma palbociclib steady-state pharmacokinetics; assay type: in vivo, human

Structure (SMILES)	Median time to progression [1]	Cycle delay ([4]; N = 42)	Dose interruption ([4]; N = 42)	Median average duration of dose interruption (range) [4]	Median average duration of cycle delay (range) ([4]; in vivo)	Median time to first dose interruption (range) ([4]; in vivo)	also measured
CC(C)(C#N)c1cc(Cn2cncn2)cc(C(C)(C)C#N)c1 [anastrozole]	approximately 12 months						
C=C1C[C@@H]2[C@H](CC[C@]3(C)C(=O)CC[C@@H]23)[C@@]2(C)C=CC(=O)C=C12 [exemestane]	approximately 12 months						
N#Cc1ccc(C(c2ccc(C#N)cc2)n2cncn2)cc1 [letrozole]		8 (19.0) n (%)	30 (71.4) n (%)	1.0 (1.0‐24.5) d	7 (5‐47) d	107 (5‐404) d	Median PFS [2]: 10.2 months; Median PFS [3]: 14.5 months
CC(=O)c1c(C)c2cnc(Nc3ccc(N4CCNCC4)cn3)nc2n(C2CCCC2)c1=O [palbociclib]		39 (92.9) n (%)	35 (83.3) n (%)	5.5 (1.0‐8.5) d	7 (5‐47) d	15 (5‐124) d	Maximum tolerated dose [5]: 125 mg; Tmax ([6]; human, plasma, oral): 4.9 h; Ctrough, predose concentration on cycle 2/day 15 ([6]; with letrozole, N = 30, geometric mean (geometric %CV)): 86.8 (40) ng/mL; Ctrough, predose concentration on cycle 1/day 15 ([6]; with letrozole, N = 32, geometric mean (geometric %CV)): 89.4 (44) ng/mL; Ctrough, predose concentration on day 15, cycles 1 and 2 ([6]; with letrozole, N = 38, geometric mean of within‐patient mean Ctrough (geometric %CV)): 90.1 (42) ng/mL; ≥1 dose reduction ([4]; N = 42): 25 (59.5) n (%); Median time to dose reduction (range), first dose reduction ([4]; in vivo): 64 (29‐232) d; Median time to dose reduction (range), second dose reduction ([4]; in vivo): 114 (64‐415) d; Patients with a dose reduction to 75 mg ([4]; maximum dose reduction, N = 42): 8 (19.0) n (%); Patients with a dose reduction to 100 mg ([4]; maximum dose reduction, N = 42): 17 (40.5) n (%)
